pIC50: −log10 of the molar value.
target: T1, mouse c-fms (Mus musculus, UniProt P09581); test: Inhibition of c-fms autophosphorylation in macrophage-like cell line BAC-1.2F5 by M-CSF stimulation (ELISA); format: cell-based; settings: BAC-1.2F5 cells, human recombinant M-CSF 50 ng/ml, read-out: c-fms autophosphorylation 50% inhibitory concentration (IC50)
T1 construct: Macrophage-like cell line BAC-1.2F5 which expresses c-fms as a M-CSF receptor on cell membranes; endogenous in cells; host or cells: BAC-1.2F5 mouse macrophage-like cell line
T1 sequence (P09581 20-977): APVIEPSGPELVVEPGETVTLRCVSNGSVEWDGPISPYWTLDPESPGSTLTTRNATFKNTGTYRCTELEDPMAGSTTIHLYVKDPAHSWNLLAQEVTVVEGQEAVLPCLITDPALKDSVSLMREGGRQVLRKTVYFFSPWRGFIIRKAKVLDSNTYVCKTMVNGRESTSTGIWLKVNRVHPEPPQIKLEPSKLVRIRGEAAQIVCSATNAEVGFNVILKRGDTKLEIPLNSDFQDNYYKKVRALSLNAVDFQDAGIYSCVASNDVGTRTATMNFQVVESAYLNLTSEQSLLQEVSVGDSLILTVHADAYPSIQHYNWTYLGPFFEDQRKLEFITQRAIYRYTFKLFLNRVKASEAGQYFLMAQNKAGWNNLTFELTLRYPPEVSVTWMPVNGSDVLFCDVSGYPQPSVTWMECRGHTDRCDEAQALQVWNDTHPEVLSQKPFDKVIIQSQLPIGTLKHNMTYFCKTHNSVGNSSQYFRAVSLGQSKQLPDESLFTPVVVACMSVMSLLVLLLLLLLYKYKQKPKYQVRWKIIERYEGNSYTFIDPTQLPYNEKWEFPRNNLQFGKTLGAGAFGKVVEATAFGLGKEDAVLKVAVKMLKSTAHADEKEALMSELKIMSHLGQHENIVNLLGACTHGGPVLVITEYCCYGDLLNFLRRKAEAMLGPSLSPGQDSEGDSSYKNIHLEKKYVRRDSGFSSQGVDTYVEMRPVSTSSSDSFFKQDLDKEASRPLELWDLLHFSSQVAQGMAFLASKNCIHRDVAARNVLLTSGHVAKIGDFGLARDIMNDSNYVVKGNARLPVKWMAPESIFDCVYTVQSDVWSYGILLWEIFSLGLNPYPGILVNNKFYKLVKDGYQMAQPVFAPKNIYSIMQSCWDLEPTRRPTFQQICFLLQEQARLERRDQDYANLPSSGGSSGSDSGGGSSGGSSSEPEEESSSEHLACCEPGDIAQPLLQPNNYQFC
Method: Macrophage-like cell line BAC-1.2F5 which expresses c-fms as a M-CSF receptor on cell membranes (CLAUDIA M. et al., J. Cell. Physiol., 130, 420-427 (1987), “Isolation and Characterization of a Cloned Growth Factor Dependent Macrophage Cell Line, BAC1.2F5”) was cultured at 37° C. in a DMEM medium containing L-cell supernatant and 10% fetal calf serum (GIBCO BRL) in a 5% CO2 incubator until about 50 to 70% confluent. The harvested cells were inoculated into wells, each containing the same medium, in a collagen type I coat 96-well flat-bottom plate in an amount of 5.0×10^4 per well, and cultured at 37° C. for 12 hr. Thereafter, the medium was replaced with a DMEM medium containing a 0.1% fetal calf serum and cultured for 12 hr. Thereafter, a test compound dissolved in dimethyl sulfoxide was added to each well, and cells were incubated at 37° C. for one hr. Human recombinant M-CSF was added to a final concentration of 50 ng/ml, and cells were stimulated at 37° C. for 6 min. After the medium was removed, 50 μl of a solubilization buffer (20 mM HEPES (pH 7.4), 150 mM NaCl, 0.2% Triton X-100, 10% glycerol, 5 mM sodium orthovanadylate, 5 mM disodium ethylenediaminetetraacetate, and 2 mM Na4P2O7) was added thereto. The mixture was shaken at 4° C. for 2 hr to prepare a cell extract as an assay sample which was then used for an ELISA assay.
The plate for the ELISA assay was prepared as follows. Phosphate buffered saline (50 μl, pH 7.4) containing 5 μg/ml of anti-phospho-tyrosine antibody (PY20; Transduction Laboratories) was added to a microplate for ELISA (Maxisorp; purchased from NUNC), followed by standing at 4° C. overnight to be immobilized on the wells. Thereafter, each well was washed twice with 200 μl of a Ca- and Mg-free phosphate buffer containing 0.1% Tween-20 (hereinafter referred to as “PBS-T”), and 200 μl of a blocking solution (Dainippon Pharmaceutical Co. Ltd.: BlockAce) was added to each well, and the wells were then allowed to stand at room temperature for 2 hr for blocking.
Separately, phosphate buffered saline (50 μl, pH 7.4) containing 5 μg/ml of anti-phospho-tyrosine antibody (PY20; Transduction Laboratories) was added to a microplate for ELISA (Maxisorp; purchased from NUNC), followed by standing at 4° C. overnight to form a solid phase on the wells. After washing of the plate, 300 μl of a blocking solution was added, followed by standing at room temperature for 2 hr to perform blocking. After washing, the whole quantity of the cell extract was transferred to the wells, and the plate was then allowed to stand at 4° C. overnight. After washing, anti-c-fms antiserum (Upstate Biotechnology, Inc.) was allowed to react at room temperature for one hr, and, after washing, a peroxidase-labeled anti-rabbit Ig antibody (Amersham) was allowed to react at room temperature for one hr. After washing, a chromophoric substrate for peroxidase (Sumitomo Bakelite Co., Ltd.) was added thereto to initiate a reaction. After a suitable level of color development, a reaction termination solution was added to stop the reaction, and the absorbance at 450 nm was measured with a microplate reader. The c-fms phosphorylation activity for each well was determined by presuming the absorbance without the addition of the test compound and with the addition of M-CSF to be 100% c-fms phosphorylation activity and the absorbance without the addition of the test compound and M-CSF to be 0% c-fms phosphorylation activity. The concentration of the test compound was varied on several levels, the c-fms phosphorylation inhibitory rate was determined for each case, and the concentration of the test compound necessary for inhibiting 50% of c-fms phosphorylation (IC50) was calculated.

SMILES	pIC50
COc1cc2nccc(Oc3ccc(NC(=O)NC(C)c4ccc(F)cc4)c(C)c3C)c2cc1OC (stereo not shown) [Example 25, N-{4-[(6,7-Dimethoxy-4-quinolyl)oxy]-2,3-dimethylphenyl}-N′-[1-(4-fluorophenyl)ethyl]urea]	7.66
COc1cc2nccc(Oc3ccc(NC(=O)N[C@@H](C)c4ccc(F)cc4)c(C)c3C)c2cc1OC [Example 26, N-{4-[(6,7-Dimethoxy-4-quinolyl)oxy]-2,3-dimethylphenyl}-N′-[(1S)-1-(4-fluorophenyl)ethyl]urea]	7.79
COc1cc2nccc(Oc3ccc(NC(=O)N[C@H](C)c4ccc(F)cc4)c(C)c3C)c2cc1OC [Example 27, N-{4-[(6,7-Dimethoxy-4-quinolyl)oxy]-2,3-dimethylphenyl}-N′-[(1R)-1-(4-fluorophenyl)ethyl]urea]	8.12
COc1cc2nccc(Oc3ccc(NC(=O)NC(C)c4ccc(F)cc4)c(F)c3)c2cc1OC (stereo not shown) [Example 28, N-{4-[(6,7-Dimethoxy-4-quinolyl)oxy]-2-fluorophenyl}-N′-[1-(4-fluorophenyl)ethyl]urea]	8.19
COc1cc2nccc(Oc3ccc(NC(=O)N[C@@H](C)c4ccc(F)cc4)c(F)c3)c2cc1OC [Example 29, N-{4-[(6,7-Dimethoxy-4-quinolyl)oxy]-2-fluorophenyl}-N′-[(1S)-1-(4-fluorophenyl)ethyl]urea]	8.64
COc1cc2nccc(Oc3ccc(NC(=O)N[C@H](C)c4ccc(F)cc4)c(F)c3)c2cc1OC [Example 30, N-{4-[(6,7-Dimethoxy-4-quinolyl)oxy]-2-fluorophenyl}-N′-[(1R)-1-(4-fluorophenyl)ethyl]urea]	8.51
COc1cc2nccc(Oc3ccc(NC(=O)NC(C)c4ccc(F)cc4)cc3F)c2cc1OC (stereo not shown) [Example 31, N-{4-[(6,7-Dimethoxy-4-quinolyl)oxy]-3-fluorophenyl}-N′-[1-(4-fluorophenyl)ethyl]urea]	7.89
COc1cc2nccc(Oc3ccc(NC(=O)N[C@@H](C)c4ccc(F)cc4)cc3F)c2cc1OC [Example 32, N-{4-[(6,7-Dimethoxy-4-quinolyl)oxy]-3-fluorophenyl}-N′-[(1S)-1-(4-fluorophenyl)ethyl]urea]	8.46
COc1cc2nccc(Oc3ccc(NC(=O)N[C@H](C)c4ccc(F)cc4)cc3F)c2cc1OC [Example 33, N-{4-[(6,7-Dimethoxy-4-quinolyl)oxy]-3-fluorophenyl}-N′-[(1R)-1-(4-fluorophenyl)ethyl]urea]	8.19
COc1cc2nccc(Oc3ccc(NC(=O)N[C@@H](C)c4ccc(Br)cc4)cc3)c2cc1OC [Example 34, N-[(1S)-1-(4-Bromophenyl)ethyl]-N′-{4-[(6,7-dimethoxy-4-quinolyl)oxy]phenyl}urea]	8.20
COc1cc2nccc(Oc3ccc(NC(=O)N[C@@H](C)c4ccccc4OC)cc3)c2cc1OC [Example 51, N-{4-[(6,7-Dimethoxy-4-quinolyl)oxy]phenyl}-N′-[(1S)-1-(2-methoxyphenyl)ethyl]urea]	8.12
COc1cc2nccc(Oc3ccc(NC(=O)N[C@H](C)c4ccccc4OC)cc3)c2cc1OC [Example 52, N-{4-[(6,7-Dimethoxy-4-quinolyl)oxy]phenyl}-N′-[(1R)-1-(2-methoxyphenyl)ethyl]urea]	8.26
COc1ccc([C@H](C)NC(=O)Nc2ccc(Oc3ccnc4cc(OC)c(OC)cc34)cc2)cc1 [Example 53, N-{4-[(6,7-Dimethoxy-4-quinolyl)oxy]phenyl}-N′-[(1S)-1-(4-methoxyphenyl)ethyl]urea]	8.57
COc1ccc([C@@H](C)NC(=O)Nc2ccc(Oc3ccnc4cc(OC)c(OC)cc34)cc2)cc1 [Example 54, N-{4-[(6,7-Dimethoxy-4-quinolyl)oxy]phenyl}-N′-[(1R)-1-(4-methoxyphenyl)ethyl]urea]	7.16
COc1cc2nccc(Oc3ccc(NC(=O)N[C@H](C)c4cccc(Br)c4)c(Cl)c3)c2cc1OC [Example 55, N-[(1R)-1-(3-Bromophenyl)ethyl]-N′-{2-chloro-4-[(6,7-dimethoxy-4-quinolyl)oxy]phenyl}urea]	7.34
COc1cc2nccc(Oc3cc(C)c(NC(=O)N[C@H](C)c4cccc(Br)c4)cc3C)c2cc1OC [Example 56, N-[(1R)-1-(3-Bromophenyl)ethyl]-N′-{4-[(6,7-dimethoxy-4-quinolyl)oxy]-2,5-dimethylphenyl}urea]	6.71
COc1cc2nccc(Oc3ccc(NC(=O)N[C@H](C)c4cccc(Br)c4)cc3Cl)c2cc1OC [Example 57, N-[(1R)-1-(3-Bromophenyl)ethyl]-N′-{3-chloro-4-[(6,7-dimethoxy-4-quinolyl)oxy]phenyl}urea]	6.89
COc1cc2nccc(Oc3ccc(NC(=O)N[C@H](C)c4cccc(Br)c4)c(C)c3)c2cc1OC [Example 58, N-[(1R)-1-(3-Bromophenyl)ethyl]-N′-{4-[(6,7-dimethoxy-4-quinolyl)oxy]-2-methylphenyl}urea]	7.09
COc1cc(Oc2ccnc3cc(OC)c(OC)cc23)ccc1NC(=O)N[C@H](C)c1cccc(Br)c1 [Example 59, N-[(1R)-1-(3-Bromophenyl)ethyl]-N′-{4-[(6,7-dimethoxy-4-quinolyl)oxy]-2-methoxyphenyl}urea]	7.69
COc1cc2nccc(Oc3ccc(NC(=O)N[C@H](C)c4cccc(Br)c4)c(C(F)(F)F)c3)c2cc1OC [Example 60, N-[(1R)-1-(3-Bromophenyl)ethyl]-N′-[4-[(6,7-dimethoxy-4-quinolyl)oxy]-2-(trifluoromethyl)phenyl]urea]	6.94
COc1cc2nccc(Oc3ccc(NC(=O)N[C@H](C)c4cccc(Br)c4)cc3OC)c2cc1OC [Example 61, N-[(1R)-1-(3-Bromophenyl)ethyl]-N′-{4-[(6,7-dimethoxy-4-quinolyl)oxy]-3-methoxyphenyl}urea]	7.35
COc1cc2nccc(Oc3ccc(NC(=O)N[C@H](C)c4cccc(Br)c4)c(C)c3C)c2cc1OC [Example 62, N-[(1R)-1-(3-Bromophenyl)ethyl]-N′-{4-[(6,7-dimethoxy-4-quinolyl)oxy]-2,3-dimethylphenyl}urea]	7.53
